Patent US8207178B2 (priority 2007, dated 2012)

How the values were obtained:
[1] = system: HIV-1 K103N-L100I mutant; assay: microbe, parasite or virus in culture; assay type: cell-based, human immunodeficiency virus type 1 (HIV-1); conditions: Human immunodeficiency virus 1, HeLa, read-out: EC50 mutant K103N-L100I, mutant K103N-L100I
[2] = system: wild type HIV-1; assay: microbe, parasite or virus in culture; assay type: cell-based, human immunodeficiency virus type 1 (HIV-1); conditions: Human immunodeficiency virus 1, Hela-JC53

Row | SMILES | EC50 [1] [nM] | EC50 [2] [nM]
1 | Cc1cc(-c2ccc[nH]2)cc(C)c1Oc1nc(Nc2ccc(C#N)cc2)nc2ccn(C)c12 [Example 27, 4-(4-(2,6-Dimethyl-4-(1H pyrrol-2-yl)phenoxy)-5-methyl-5H-pyrrolo[3,2-d]pyrimidin-2-ylamino) benzonitrile] | > 10 | < 1
2 | Cc1cc(-c2cnc(C#N)nc2)cc(C)c1Oc1nc(Nc2ccc(C#N)cc2)nc2ccn(C)c12 [Example 30, 5-(4-(2-(4-Cyanophenylamino)-5-methyl-5H-pyrrolo[3,2-d]pyrimidin-4-yloxy)-3,5-dimethylphenyl)pyrimidine-2-carbonitrile] | < 1 | < 1
3 | Cc1cc(-c2ccncc2C#N)cc(C)c1Oc1nc(Nc2ccc(C#N)cc2)nc2c(Cl)cn(C)c12 [Example 31, 4-(4-(7-Chloro-2-(4-cyanophenylamino)-5-methyl-5H-pyrrolo[3,2-d]pyrimidin-4-yloxy)-3,5-dimethyl-phenyl)nicotinonitrile] | < 1 | < 1
4 | Cc1cc(-c2cn[nH]c2)cc(C)c1Oc1nc(Nc2ccc(C#N)cc2)nc2c(Cl)cn(C)c12 [Example 32, 4-(7-Chloro-4-(2,6-dimethyl-4-(1H-pyrazol-4-yl)phenoxy)-5-methyl-5H-pyrrolo[3,2-d]pyrimidin-2-ylamino)benzonitrile] | > 10 | 1 to 10
5 | Cc1cc(-c2cccc(N(C)C)c2)cc(C)c1Oc1nc(Nc2ccc(C#N)cc2)nc2ccn(C)c12 [Example 33, 4-(4-(3′-(Dimethylamino)-3,5-dimethylbiphenyl-4-yloxy)-5-methyl-5H-pyrrolo [3,2-d]pyrimidin-2-ylamino) benzonitrile] | > 10 | > 10
6 | Cc1cc(-c2ccsc2C#N)cc(C)c1Oc1nc(Nc2ccc(C#N)cc2)nc2ccn(C)c12 [Example 34, 3-(4-(2-(4-Cyanophenylamino)-5-methyl-5H-pyrrolo [3,2-d]pyrimidin-4-yloxy)-3,5-dimethylphenyl) thiophene-2-carbonitrile] | 1 to 10 | 1 to 10
7 | Cc1cc(-c2c(C)noc2C)cc(C)c1Oc1nc(Nc2ccc(C#N)cc2)nc2ccn(C)c12 [Example 35, 4-(4-(4-(3,5-Dimethylisoxazol-4-yl)-2,6-dimethylphenoxy)-5-methyl-5H-pyrrolo[3,2-d]pyrimidin-2-ylamino) benzonitrile] | 1 to 10 | 1 to 10
8 | Cc1cc(-c2cccc(C(=O)N(C)C)c2)cc(C)c1Oc1nc(Nc2ccc(C#N)cc2)nc2ccn(C)c12 [Example 36, 4′-(2-(4-Cyanophenylamino)-5-methyl-5H-pyrrolo[3,2-d]pyrimidin-4-yloxy)-N,N,3′,5′-tetramethylbiphenyl-3-carboxamide] | > 10 | 1 to 10
9 | Cc1cc(-c2ccnc3ccccc23)cc(C)c1Oc1nc(Nc2ccc(C#N)cc2)nc2ccn(C)c12 [Example 37] | > 10 | 1 to 10
10 | Cc1cc(-c2cccc3ncccc23)cc(C)c1Oc1nc(Nc2ccc(C#N)cc2)nc2ccn(C)c12 [Example 38, 4-(4-(2,6-Dimethyl-4-(quinolin-5-yl)phenoxy)-5-methyl-5H-pyrrolo[3,2-d]pyrimidin-2-ylamino) benzonitrile] | 1 to 10 | 1 to 10
11 | Cc1cc(-c2cccc3cnccc23)cc(C)c1Oc1nc(Nc2ccc(C#N)cc2)nc2ccn(C)c12 [Example 39, 4-(4-(4-(Isoquinolin-5-yl)-2,6-dimethylphenoxy)-5-methyl-5H-pyrrolo[3,2-d]pyrimidin-2-ylamino) benzonitrile] | > 10 | > 10
12 | Cc1cc(-c2cncc3ccccc23)cc(C)c1Oc1nc(Nc2ccc(C#N)cc2)nc2ccn(C)c12 [Example 40, 4-(4-(4-(Isoquinolin-4-yl)-2,6-dimethylphenoxy)-5-methyl-5H-pyrrolo[3,2-d]pyrimidin-2-ylamino) benzonitrile] | > 10 | 1 to 10
13 | Cc1cc(-c2cnc3ccccc3c2)cc(C)c1Oc1nc(Nc2ccc(C#N)cc2)nc2ccn(C)c12 [Example 41, 4-(4-(2,6-Dimethyl-4-(quinolin-3-yl)phenoxy)-5-methyl-5H-pyrrolo[3,2-d]pyrimidin-2-ylamino) benzonitrile] | > 10 | 1 to 10
14 | Cc1cc(-c2ccc(S(=O)(=O)N(C)C)cc2)cc(C)c1Oc1nc(Nc2ccc(C#N)cc2)nc2ccn(C)c12 [Example 42, 4′-(2-(4-Cyanophenylamino)-5-methyl-5H-pyrrolo[3,2-d]pyrimidin-4-yloxy)-N,N,3′,5′-tetramethylbiphenyl-4-sulfonamide] | > 10 | 1 to 10
15 | Cc1cc(-c2cccc3cccnc23)cc(C)c1Oc1nc(Nc2ccc(C#N)cc2)nc2ccn(C)c12 [Example 43, 4-(4-(2,6-Dimethyl-4-(quinolin-8-yl)phenoxy)-5-methyl-5H-pyrrolo[3,2-d]pyrimidin-2-ylamino) benzonitrile] | > 10 | 1 to 10
16 | Cc1cc(-c2ccc(C#N)cc2)cc(C)c1Oc1nc(Nc2ccc(C#N)cc2)nc2ccn(C)c12 [Example 44, 4′-(2-(4-Cyanophenylamino)-5-methyl-5H-pyrrolo[3,2-d]pyrimidin-4-yloxy)-3′,5′-dimethylbiphenyl-4-carbonitrile] | 1 to 10 | 1 to 10
17 | Cc1cc(-c2ccnn2C)cc(C)c1Oc1nc(Nc2ccc(C#N)cc2)nc2nc[nH]c12 [Example 47, 4-(6-(2,6-Dimethyl-4-(1-methyl-1H-pyrazol-5-yl)phenoxy)-7H-purin-2-ylamino)benzonitrile] | > 10 | 1 to 10
18 | Cc1cc(-c2ccncn2)cc(C)c1Oc1nc(Nc2ccc(C#N)cc2)nc2ccn(C)c12 [Example 48, 4-(4-(2,6-Dimethyl-4-(pyrimidin-4-yl)phenoxy)-5-methyl-5H-pyrrolo [3,2-d]pyrimidin-2-ylamino)benzonitrile] | 1 to 10 | 1 to 10
19 | COc1ccc(Cn2cnc3nc(Nc4ccc(C#N)cc4)nc(Oc4c(C)cc(-c5ccc(C(N)=O)cc5)cc4C)c32)cc1 [Example 49, 4′-(2-(4-Cyanophenylamino)-7-(4-methoxybenzyl)-7H-purin-6-yloxy)-3′,5′-dimethylbiphenyl-4-carboxamide] | > 10 | 1 to 10
20 | Cc1cc(-c2ccncc2)cc(C)c1Oc1nc(Nc2ccc(C#N)cc2)nc2c1cnn2C [Example 51, 4-(4-(2,6-Dimethyl-4-(pyridin-4-yl)phenoxy)-1-methyl-1H-pyrazolo[3,4-d]pyrimidin-6-ylamino) benzonitrile] | > 10 | 1 to 10
21 | Cc1cc(-c2ccc(S(N)(=O)=O)cc2)cc(C)c1Oc1nc(Nc2ccc(C#N)cc2)nc2c1ncn2C [Example 52, 4′-(2-(4-Cyanophenylamino)-9-methyl-9H-purin-6-yloxy)-3′,5′-dimethylbiphenyl-4-sulfonamide] | 1 to 10 | < 1
22 | Cc1cc(-c2ccc(N)cc2)cc(C)c1Oc1nc(Nc2ccc(C#N)cc2)nc2ccn(C)c12 [Example 54, 4-(4-(4′-Amino-3,5-dimethylbiphenyl-4-yloxy)-5-methyl-5H-pyrrolo[3,2-d]pyrimidin-2-ylamino) benzonitrile] | > 10 | < 1
23 | Cc1cc(-c2ccc(C(N)=O)cc2F)cc(C)c1Oc1nc(Nc2ccc(C#N)cc2)nc2ncn(C)c12 [Example 55, 4′-(2-(4-Cyanophenylamino)-7-methyl-7H-purin-6-yloxy)-2-fluoro-3′,5′-dimethylbiphenyl-4-carboxamide] | 1 to 10 | 1 to 10
